“And” between values parts separate entries of the source, which are not always exact repeats. Equal entries are not always repeated. Inconclusive results and toxic doses are left out. How the source made its calls: active means survival T/C of 150% or more; inactive means T/C below 125% in these data.
System: BDF1 mice, B16 melanoma ip, median survival T/C
Assay: NCI In Vivo Anticancer Drug Screen. Data for tumor model B16 Melanoma (intraperitoneal) in B6D2F1 (BDF1) mice
Conditions: endpoint: median survival time, higher = longer survival
Outline: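 Survival or tumor size is measured after treatment of tumor-bearing mice and normalised to the vehicle-treated control group.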

[1] = dose: 25.0 mg/kg/injection, schedule: Q01DX009 (ip), vehicle: saline with Tween-80
[2] = dose: 50.0 mg/kg/injection, schedule: Q01DX009 (ip), vehicle: saline with Tween-80
[3] = dose: 100.0 mg/kg/injection, schedule: Q01DX009 (ip), vehicle: saline with Tween-80
[4] = dose: 200.0 mg/kg/injection, schedule: Q01DX009 (ip), vehicle: saline with Tween-80
[5] = dose: 12.5 mg/kg/injection, schedule: Q01DX009 (ip), vehicle: saline
[6] = dose: 25.0 mg/kg/injection, schedule: Q01DX009 (ip), vehicle: saline
[7] = dose: 12.5 mg/kg/injection, schedule: Q01DX009 (ip), vehicle: saline with Tween-80

Measured: T/C

Oc1ccc2ccccc2c1Cc1c(O)ccc2ccccc12
inactive: [1] 93 % of control | [2] 91 % of control | [3] 94 % of control | [4] 90 % of control

COc1cc(O)c2c(c1)C(=O)c1cc3c(c(O)c1C2=O)CC(OC)C(C)(O)C3=O (stereo not given)
inactive: dose: 25.0 mg/kg/injection, schedule: Q01DX009 (ip), vehicle: other 104 % of control | dose: 50.0 mg/kg/injection, schedule: Q01DX009 (ip), vehicle: other 91 % of control | dose: 100.0 mg/kg/injection, schedule: Q01DX009 (ip), vehicle: other 91 % of control

COC1=C(C)C(=O)C2=C(C1=O)C(CO)N1C(C#N)C3CC4C(C1C2N1CCOC41)N3C (stereo not given)
inactive: dose: 0.25 mg/kg/injection, schedule: Q01DX009 (ip), vehicle: saline + alcohol 117 % of control | dose: 0.5 mg/kg/injection, schedule: Q01DX009 (ip), vehicle: saline + alcohol 117 % of control | dose: 1.0 mg/kg/injection, schedule: Q01DX009 (ip), vehicle: saline + alcohol 112 % of control

CC(NC(=O)c1ccccc1)C(=O)NC(CSC(c1ccccc1)c1ccccc1)C(=O)O (stereo not given)
inactive: dose: 12.5 mg/kg/injection, schedule: Q04DX003 (ip), vehicle: saline 107 % of control | dose: 25.0 mg/kg/injection, schedule: Q04DX003 (ip), vehicle: saline 110 % of control | dose: 50.0 mg/kg/injection, schedule: Q04DX003 (ip), vehicle: saline 89 % of control

CCOC1=CCN(S(=O)(=O)c2ccc(C)cc2)c2ccc(OC)cc21
inactive: dose: 100.0 mg/kg/injection, schedule: Q04DX003 (ip), vehicle: Klucel (hydroxypropylcellulose) (HPC) 102 % of control | dose: 200.0 mg/kg/injection, schedule: Q04DX003 (ip), vehicle: Klucel (hydroxypropylcellulose) (HPC) 104 % of control | dose: 400.0 mg/kg/injection, schedule: Q04DX003 (ip), vehicle: Klucel (hydroxypropylcellulose) (HPC) 94 % of control

COC(=O)CNc1ccc(S(=O)(=O)c2ccc(N)cc2)cc1
inactive: dose: 100.0 mg/kg/injection, schedule: Q01DX009 (ip), vehicle: Klucel (hydroxypropylcellulose) (HPC) 103 % of control | dose: 200.0 mg/kg/injection, schedule: Q01DX009 (ip), vehicle: Klucel (hydroxypropylcellulose) (HPC) 106 % of control | dose: 400.0 mg/kg/injection, schedule: Q01DX009 (ip), vehicle: Klucel (hydroxypropylcellulose) (HPC) 120 % of control

CC(=N\O)/C(C)=N/O.CC(=N\O)/C(C)=N/O.[Pd]
inactive: dose: 0.75 mg/kg/injection, schedule: Q01DX009 (ip), vehicle: Klucel (hydroxypropylcellulose) (HPC) 96 % of control | dose: 1.57 mg/kg/injection, schedule: Q01DX009 (ip), vehicle: Klucel (hydroxypropylcellulose) (HPC) 95 % of control | dose: 3.13 mg/kg/injection, schedule: Q01DX009 (ip), vehicle: Klucel (hydroxypropylcellulose) (HPC) 96 % of control | dose: 6.25 mg/kg/injection, schedule: Q01DX009 (ip), vehicle: Klucel (hydroxypropylcellulose) (HPC) 94 % of control

C[N+](C)(C)CCCC1C2CCC(C2)C1C[N+](C)(C)C (stereo not given)
inactive: [5] 110 % of control | [6] 110 % of control

CC1=C(/C=C/C(C)=N/NC(N)=S)C(C)(C)CCC1
inactive: dose: 0.3 mg/kg/injection, schedule: Q01DX009 (ip), vehicle: saline with Tween-80 105 % of control | dose: 6.0 mg/kg/injection, schedule: Q01DX009 (ip), vehicle: saline with Tween-80 97 % of control | dose: 12.0 mg/kg/injection, schedule: Q01DX009 (ip), vehicle: saline with Tween-80 97 % of control

CCCCCCCC(=O)N(C)OC
inactive: dose: 6.25 mg/kg/injection, schedule: Q04DX003 (ip), vehicle: Klucel (hydroxypropylcellulose) (HPC) 107 % of control | dose: 12.5 mg/kg/injection, schedule: Q04DX003 (ip), vehicle: Klucel (hydroxypropylcellulose) (HPC) 96 % of control | dose: 25.0 mg/kg/injection, schedule: Q04DX003 (ip), vehicle: Klucel (hydroxypropylcellulose) (HPC) 112 % of control

CCCNC(C)(C)C(SSS)c1cccs1 (stereo not given)
inactive: dose: 4.68 mg/kg/injection, schedule: Q04DX003 (ip), vehicle: saline 97 % of control | dose: 6.25 mg/kg/injection, schedule: Q01DX009 (ip), vehicle: alcohol 111 % of control | dose: 9.37 mg/kg/injection, schedule: Q04DX003 (ip), vehicle: saline 106 % of control | dose: 12.5 mg/kg/injection, schedule: Q01DX009 (ip), vehicle: alcohol 100 % of control | dose: 18.75 mg/kg/injection, schedule: Q04DX003 (ip), vehicle: saline 107 % of control | dose: 25.0 mg/kg/injection, schedule: Q01DX009 (ip), vehicle: alcohol 95 % of control | dose: 50.0 mg/kg/injection, schedule: Q01DX009 (ip), vehicle: alcohol 91 % of control

CCOC(=O)C(Cc1ccc(O)cc1)Nc1nc2ccccc2o1 (stereo not given)
inactive: [2] 103 % of control | [3] 106 % of control | [4] 106 % of control | dose: 400.0 mg/kg/injection, schedule: Q01DX009 (ip), vehicle: saline with Tween-80 96 % of control

CN(C)CCC=C1c2ccccc2C=Cc2ccccc21
inactive: dose: 0.39 mg/kg/injection, schedule: Q01DX009 (ip), vehicle: saline 96 % of control | dose: 0.78 mg/kg/injection, schedule: Q01DX009 (ip), vehicle: saline 102 % of control | dose: 1.56 mg/kg/injection, schedule: Q01DX009 (ip), vehicle: saline 98 % of control and 97 % of control | dose: 3.12 mg/kg/injection, schedule: Q01DX009 (ip), vehicle: saline 96 % of control and 100 % of control | dose: 6.25 mg/kg/injection, schedule: Q01DX009 (ip), vehicle: saline 86 % of control and 123 % of control and 93 % of control | [5] 111 % of control | [6] 118 % of control and 90 % of control | dose: 50.0 mg/kg/injection, schedule: Q01DX009 (ip), vehicle: saline 101 % of control

CC1CCCC(C)N1C1=NCCO1 (stereo not given)
inactive: dose: 5.0 mg/kg/injection, schedule: Q01DX009 (ip), vehicle: saline with Tween-80 100 % of control | dose: 5.0 mg/kg/injection, schedule: Q04DX003 (ip), vehicle: saline with Tween-80 100 % of control | dose: 10.0 mg/kg/injection, schedule: Q01DX009 (ip), vehicle: saline with Tween-80 112 % of control | dose: 10.0 mg/kg/injection, schedule: Q04DX003 (ip), vehicle: saline with Tween-80 97 % of control | dose: 20.0 mg/kg/injection, schedule: Q01DX009 (ip), vehicle: saline with Tween-80 92 % of control | dose: 20.0 mg/kg/injection, schedule: Q04DX003 (ip), vehicle: saline with Tween-80 100 % of control

Cc1ccc(NC(=O)c2ccc(C(=O)Nc3ccc(C)cc3)cc2)cc1
inactive: [7] 117 % of control | [1] 93 % of control | [2] 100 % of control

CC(=O)N(C)c1ccc(/C=C2\C=Cc3ccccc32)cc1
inactive: dose: 6.25 mg/kg/injection, schedule: Q01DX009 (ip), vehicle: saline with Tween-80 96 % of control | [7] 100 % of control | [1] 102 % of control

OCCN(CCO)CN(CO)c1nc(N(CO)CN(CCO)CCO)nc(N(CO)CN(CCO)CCO)n1
inactive: dose: 100.0 mg/kg/injection, schedule: Q04DX003 (ip), vehicle: saline 120 % of control | dose: 200.0 mg/kg/injection, schedule: Q04DX003 (ip), vehicle: saline 123 % of control | dose: 400.0 mg/kg/injection, schedule: Q04DX003 (ip), vehicle: saline 112 % of control

COCC1OC(OC2C3=C(C(C)C)CCC3(C)/C=C3\C(CCC3(O)COC)C(C)C2O)C(O)C2OC3OC12OC3(C)C1CO1 (stereo not given)
inactive: dose: 1.5 mg/kg/injection, schedule: Q01DX009 (ip), vehicle: Klucel (hydroxypropylcellulose) (HPC) 93 % of control | dose: 3.0 mg/kg/injection, schedule: Q01DX009 (ip), vehicle: Klucel (hydroxypropylcellulose) (HPC) 89 % of control | dose: 6.0 mg/kg/injection, schedule: Q01DX009 (ip), vehicle: Klucel (hydroxypropylcellulose) (HPC) 98 % of control | dose: 12.0 mg/kg/injection, schedule: Q01DX009 (ip), vehicle: Klucel (hydroxypropylcellulose) (HPC) 91 % of control | dose: 24.0 mg/kg/injection, schedule: Q01DX009 (ip), vehicle: Klucel (hydroxypropylcellulose) (HPC) 105 % of control

Source: PubChem BioAssay AID192 (DTP/NCI, 2004)
